Test system: Transport facilitation protein genes
Experiment: DNA chip mRNA expression in yeast, transport facilitation protein genes (Table 5)
Format: cell-based, Saccharomyces cerevisiae S288C
In short: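 S. cerevisiae S288C grown at 25° C. in YPD to log phase, then exposed 2 h to a toxicant at a growth-inhibiting, non-lethal concentration; untreated cells as control. Poly(A) mRNA reverse-transcribed with Cy3-dUTP or Cy5-dUTP, hybridized >12 h at 65° C. to whole-genome yeast DNA chip; value = fluorescence ratio treated/untreated.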

COc1cc(CNC(=O)CCCCC=CC(C)C)ccc1O [(12), 8-methyl-N-vanillyl-6-nonenamide]
The level of expressed mRNA in the presence of chemical substance/The level of expressed mRNA in the absence of chemical substance (yeast gene YGR281W): 2.4 | The level of expressed mRNA in the presence of chemical substance/The level of expressed mRNA in the absence of chemical substance (yeast gene YHL035C): 1.4 | The level of expressed mRNA in the presence of chemical substance/The level of expressed mRNA in the absence of chemical substance (yeast gene YHL040C): 2.0 | The level of expressed mRNA in the presence of chemical substance/The level of expressed mRNA in the absence of chemical substance (yeast gene YHL047C): 2.6 | The level of expressed mRNA in the presence of chemical substance/The level of expressed mRNA in the absence of chemical substance (yeast gene YHR026W): 0.7 | The level of expressed mRNA in the presence of chemical substance/The level of expressed mRNA in the absence of chemical substance (yeast gene YHR092C): 1.0 | The level of expressed mRNA in the presence of chemical substance/The level of expressed mRNA in the absence of chemical substance (yeast gene YHR094C): 0.9 | The level of expressed mRNA in the presence of chemical substance/The level of expressed mRNA in the absence of chemical substance (yeast gene YHR175W): 1.4 | The level of expressed mRNA in the presence of chemical substance/The level of expressed mRNA in the absence of chemical substance (yeast gene YIL006W): 0.9 | The level of expressed mRNA in the presence of chemical substance/The level of expressed mRNA in the absence of chemical substance (yeast gene YIL022W): 0.9 | The level of expressed mRNA in the presence of chemical substance/The level of expressed mRNA in the absence of chemical substance (yeast gene YIL056W): 1.0 | The level of expressed mRNA in the presence of chemical substance/The level of expressed mRNA in the absence of chemical substance (yeast gene YIL088C): 0.9 | The level of expressed mRNA in the presence of chemical substance/The level of expressed mRNA in the absence of chemical substance (yeast gene YJL034W): 1.6 | The level of expressed mRNA in the presence of chemical substance/The level of expressed mRNA in the absence of chemical substance (yeast gene YJL212C): 0.4 | The level of expressed mRNA in the presence of chemical substance/The level of expressed mRNA in the absence of chemical substance (yeast gene YJL219W): 1.1 | The level of expressed mRNA in the presence of chemical substance/The level of expressed mRNA in the absence of chemical substance (yeast gene YJR077C): 1.0 | The level of expressed mRNA in the presence of chemical substance/The level of expressed mRNA in the absence of chemical substance (yeast gene YJR106W): 0.9 | The level of expressed mRNA in the presence of chemical substance/The level of expressed mRNA in the absence of chemical substance (yeast gene YJR121W): 0.8 | The level of expressed mRNA in the presence of chemical substance/The level of expressed mRNA in the absence of chemical substance (yeast gene YKL016C): 1.0 | The level of expressed mRNA in the presence of chemical substance/The level of expressed mRNA in the absence of chemical substance (yeast gene YKL146W): 1.1 | The level of expressed mRNA in the presence of chemical substance/The level of expressed mRNA in the absence of chemical substance (yeast gene YKR039W): 1.5 | The level of expressed mRNA in the presence of chemical substance/The level of expressed mRNA in the absence of chemical substance (yeast gene YKR067W): 1.0 | The level of expressed mRNA in the presence of chemical substance/The level of expressed mRNA in the absence of chemical substance (yeast gene YLL028W): 1.3 | The level of expressed mRNA in the presence of chemical substance/The level of expressed mRNA in the absence of chemical substance (yeast gene YLL055W): 0.7 | The level of expressed mRNA in the presence of chemical substance/The level of expressed mRNA in the absence of chemical substance (yeast gene YLR081W): 1.0 | The level of expressed mRNA in the presence of chemical substance/The level of expressed mRNA in the absence of chemical substance (yeast gene YLR295C): 0.5 | The level of expressed mRNA in the presence of chemical substance/The level of expressed mRNA in the absence of chemical substance (yeast gene YLR348C): 0.9 | The level of expressed mRNA in the presence of chemical substance/The level of expressed mRNA in the absence of chemical substance (yeast gene YLR378C): 1.2 | The level of expressed mRNA in the presence of chemical substance/The level of expressed mRNA in the absence of chemical substance (yeast gene YML116W): 0.5 | The level of expressed mRNA in the presence of chemical substance/The level of expressed mRNA in the absence of chemical substance (yeast gene YMR011W): 0.8 | The level of expressed mRNA in the presence of chemical substance/The level of expressed mRNA in the absence of chemical substance (yeast gene YMR162C): 0.7 | The level of expressed mRNA in the presence of chemical substance/The level of expressed mRNA in the absence of chemical substance (yeast gene YMR203W): 0.7 | The level of expressed mRNA in the presence of chemical substance/The level of expressed mRNA in the absence of chemical substance (yeast gene YNL055C): 1.7 | The level of expressed mRNA in the presence of chemical substance/The level of expressed mRNA in the absence of chemical substance (yeast gene YNL259C): 0.7 | The level of expressed mRNA in the presence of chemical substance/The level of expressed mRNA in the absence of chemical substance (yeast gene YNR072W): 1.0 | The level of expressed mRNA in the presence of chemical substance/The level of expressed mRNA in the absence of chemical substance (yeast gene YOL119C): 0.9 | The level of expressed mRNA in the presence of chemical substance/The level of expressed mRNA in the absence of chemical substance (yeast gene YOL156W): 0.9 | The level of expressed mRNA in the presence of chemical substance/The level of expressed mRNA in the absence of chemical substance (yeast gene YOL163W): 1.0 | The level of expressed mRNA in the presence of chemical substance/The level of expressed mRNA in the absence of chemical substance (yeast gene YOR035C): 1.1 | The level of expressed mRNA in the presence of chemical substance/The level of expressed mRNA in the absence of chemical substance (yeast gene YOR130C): 0.9 | The level of expressed mRNA in the presence of chemical substance/The level of expressed mRNA in the absence of chemical substance (yeast gene YOR153W): 4.0 | The level of expressed mRNA in the presence of chemical substance/The level of expressed mRNA in the absence of chemical substance (yeast gene YOR270C): 0.7 | The level of expressed mRNA in the presence of chemical substance/The level of expressed mRNA in the absence of chemical substance (yeast gene YOR273C): 0.8 | The level of expressed mRNA in the presence of chemical substance/The level of expressed mRNA in the absence of chemical substance (yeast gene YOR316C): 1.1 | The level of expressed mRNA in the presence of chemical substance/The level of expressed mRNA in the absence of chemical substance (yeast gene YOR328W): 1.8 | The level of expressed mRNA in the presence of chemical substance/The level of expressed mRNA in the absence of chemical substance (yeast gene YOR332W): 1.0 | The level of expressed mRNA in the presence of chemical substance/The level of expressed mRNA in the absence of chemical substance (yeast gene YOR348C): 0.7 | The level of expressed mRNA in the presence of chemical substance/The level of expressed mRNA in the absence of chemical substance (yeast gene YPL036W): 0.5 | The level of expressed mRNA in the presence of chemical substance/The level of expressed mRNA in the absence of chemical substance (yeast gene YPL134C): 0.8 | The level of expressed mRNA in the presence of chemical substance/The level of expressed mRNA in the absence of chemical substance (yeast gene YPL265W): 0.9 | The level of expressed mRNA in the presence of chemical substance/The level of expressed mRNA in the absence of chemical substance (yeast gene YPL271W): 0.8 | The level of expressed mRNA in the presence of chemical substance/The level of expressed mRNA in the absence of chemical substance (yeast gene YPR124W): 0.8 | The level of expressed mRNA in the presence of chemical substance/The level of expressed mRNA in the absence of chemical substance (yeast gene YPR192W): 0.5 | The level of expressed mRNA in the presence of chemical substance/The level of expressed mRNA in the absence of chemical substance (yeast gene YPR194C): 0.7
